Results taken from PubChem BioAssay AID330 (DTP/NCI, 2004).
Where “and” joins values, the source holds several entries; their conditions need not be identical. Identical values can stand only once. Toxic doses and inconclusive results are not listed.

Test system: P388 leukemia ip, CD2F1 mice, survival T/C
Assay: NCI In Vivo Anticancer Drug Screen. Data for tumor model P388 Leukemia (intraperitoneal) in CD2F1 (CDF1) mice
Settings: endpoint: median survival time, higher = longer survival
How it was run: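 Mice carrying the transplanted tumor received test compound or vehicle. Survival was recorded in each group, and the value is the treated-group measurement divided by that of the vehicle-treated control group.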

[1] = dose: 50.0 mg/kg/injection, schedule: Q01DX005 (ip), vehicle: saline with Tween-80
[2] = dose: 100.0 mg/kg/injection, schedule: Q01DX005 (ip), vehicle: saline with Tween-80
[3] = dose: 200.0 mg/kg/injection, schedule: Q01DX005 (ip), vehicle: saline with Tween-80
[4] = dose: 50.0 mg/kg/injection, schedule: Q01DX009 (ip), vehicle: saline
[5] = dose: 50.0 mg/kg/injection, schedule: Q01DX009 (ip), vehicle: Klucel (hydroxypropylcellulose) (HPC)
[6] = dose: 100.0 mg/kg/injection, schedule: Q01DX009 (ip), vehicle: Klucel (hydroxypropylcellulose) (HPC)
[7] = dose: 50.0 mg/kg/injection, schedule: Q01DX009 (ip), vehicle: saline with Tween-80
[8] = dose: 100.0 mg/kg/injection, schedule: Q01DX009 (ip), vehicle: saline with Tween-80
[9] = dose: 200.0 mg/kg/injection, schedule: Q01DX009 (ip), vehicle: saline with Tween-80
[10] = dose: 60.0 mg/kg/injection, schedule: Q01DX005 (ip), vehicle: saline with Tween-80
[11] = dose: 120.0 mg/kg/injection, schedule: Q01DX005 (ip), vehicle: saline with Tween-80
[12] = dose: 240.0 mg/kg/injection, schedule: Q01DX005 (ip), vehicle: saline with Tween-80
[13] = dose: 12.5 mg/kg/injection, schedule: Q01DX009 (ip), vehicle: saline
[14] = dose: 25.0 mg/kg/injection, schedule: Q01DX009 (ip), vehicle: saline
[15] = dose: 200.0 mg/kg/injection, schedule: Q01DX009 (ip), vehicle: Klucel (hydroxypropylcellulose) (HPC)
[16] = dose: 100.0 mg/kg/injection, schedule: Q01DX009 (ip), vehicle: saline
[17] = dose: 200.0 mg/kg/injection, schedule: Q01DX009 (ip), vehicle: saline
[18] = dose: 400.0 mg/kg/injection, schedule: Q01DX009 (ip), vehicle: saline

O=C(Nc1cccc(Cl)c1)OCC(COC(=O)Nc1cccc(Cl)c1)(COC(=O)Nc1cccc(Cl)c1)[N+](=O)[O-]
T/C [1]: 95 % of control
T/C [2]: 98 % of control
T/C [3]: 100 % of control

Oc1cccc2c1[O][Sb][O]2
T/C (dose: 4.0 mg/kg/injection, schedule: Q01DX009 (ip), vehicle: Klucel (hydroxypropylcellulose) (HPC)): 120 % of control
T/C (dose: 4.0 mg/kg/injection, schedule: Q03HX016 (ip), vehicle: Klucel (hydroxypropylcellulose) (HPC)): 101 % of control
T/C (dose: 4.0 mg/kg/injection, schedule: Q03HX024 (ip), vehicle: Klucel (hydroxypropylcellulose) (HPC)): 103 % of control
T/C (dose: 8.0 mg/kg/injection, schedule: Q03HX024 (ip), vehicle: Klucel (hydroxypropylcellulose) (HPC)): 116 % of control
T/C [4]: 166 % of control
T/C (dose: 64.0 mg/kg/injection, schedule: Q01DX001 (ip), vehicle: Klucel (hydroxypropylcellulose) (HPC)): 122 % of control
T/C (dose: 128.0 mg/kg/injection, schedule: Q01DX001 (ip), vehicle: Klucel (hydroxypropylcellulose) (HPC)): 115 % of control

C=Cc1ccc(Oc2ccccc2)cc1
T/C (dose: 25.0 mg/kg/injection, schedule: Q04DX003 (ip), vehicle: saline): 100 % of control
T/C (dose: 50.0 mg/kg/injection, schedule: Q04DX003 (ip), vehicle: saline): 95 % of control
T/C (dose: 100.0 mg/kg/injection, schedule: Q04DX003 (ip), vehicle: saline): 109 % of control

Nc1nc(Cl)cc(Cl)n1
T/C (dose: 12.5 mg/kg/injection, schedule: Q01DX009 (ip), vehicle: Klucel (hydroxypropylcellulose) (HPC)): 94 % of control
T/C (dose: 25.0 mg/kg/injection, schedule: Q01DX009 (ip), vehicle: Klucel (hydroxypropylcellulose) (HPC)): 107 % of control
T/C [5]: 108 % of control
T/C [6]: 99 % of control

CNC(=O)c1ccccc1CC1(O)CCCc2ccccc21 (centres undefined)
T/C [7]: 101 % of control
T/C [8]: 96 % of control
T/C [9]: 96 % of control

CN(C)c1ccc(/C=C2\SC(=S)N(CCCN3CCOCC3)C2=O)cc1
T/C [7]: 91 % of control
T/C [8]: 90 % of control
T/C [9]: 87 % of control

O=C1CCS(=O)(=O)c2ccccc21
T/C [7]: 100 % of control

O=c1c(-c2ccccc2)coc2cc(O)ccc12
T/C [10]: 105 % of control
T/C [11]: 89 % of control
T/C [12]: 88 % of control

CCOC(=O)c1cn(CC)c2cc(-n3cccc3)ccc2c1=O
T/C [10]: 93 % of control
T/C [11]: 98 % of control
T/C [12]: 92 % of control

CCc1c2cc3c(cc2cc2c4cc5c(cc4cc[n+]12)OCO5)OCO3 (tested in a mixture with another compound)
T/C (dose: 0.5 mg/kg/injection, schedule: Q01DX009 (ip), vehicle: Klucel (hydroxypropylcellulose) (HPC)): 117 % of control
T/C (dose: 1.0 mg/kg/injection, schedule: Q01DX009 (ip), vehicle: Klucel (hydroxypropylcellulose) (HPC)): 121 % of control
T/C (dose: 5.0 mg/kg/injection, schedule: Q01DX009 (ip), vehicle: Klucel (hydroxypropylcellulose) (HPC)): 153 % of control and 174 % of control

CCOC1=CS(C)(=O)=NC(SC)=C1C#N (centres undefined)
T/C (dose: 50.0 mg/kg/injection, schedule: Q01DX001 (ip), vehicle: Klucel (hydroxypropylcellulose) (HPC)): 99 % of control
T/C (dose: 100.0 mg/kg/injection, schedule: Q01DX001 (ip), vehicle: Klucel (hydroxypropylcellulose) (HPC)): 105 % of control
T/C (dose: 200.0 mg/kg/injection, schedule: Q01DX001 (ip), vehicle: Klucel (hydroxypropylcellulose) (HPC)): 99 % of control

CCO/C=C(\C#N)S(=O)(=O)/C(C#N)=C/OCC
T/C (dose: 100.0 mg/kg/injection, schedule: Q04DX002 (ip), vehicle: saline): 108 % of control
T/C (dose: 200.0 mg/kg/injection, schedule: Q04DX002 (ip), vehicle: saline): 101 % of control

c1ccc(Nc2nnnn2C2CCCCC2)cc1
T/C (dose: 6.25 mg/kg/injection, schedule: Q01DX009 (ip), vehicle: saline): 101 % of control
T/C [13]: 105 % of control
T/C [14]: 100 % of control
T/C [4]: 108 % of control

O=C(NNC(=O)C(Cl)Cl)c1ccccn1
T/C [5]: 99 % of control
T/C [6]: 101 % of control
T/C [15]: 109 % of control

O=C1C=CC(=O)N1c1ccc2c(c1)oc(=O)c1ccccc12
T/C [13]: 95 % of control
T/C [14]: 92 % of control
T/C [4]: 90 % of control
T/C [16]: 100 % of control
T/C [17]: 99 % of control
T/C [18]: 110 % of control

Cc1ccc(S(=O)(=O)OC2C(OCc3ccccc3)OCC(O)C2O)cc1 (centres undefined)
T/C [1]: 102 % of control
T/C [2]: 100 % of control
T/C [3]: 100 % of control

COc1ccc(/C(=N\N)C2=NNC3(CCCCC3)NN2)cc1
T/C [5]: 94 % of control
T/C [6]: 93 % of control
T/C [15]: 96 % of control

COC(=O)C(CS)NC(=O)C(Cc1c[nH]c2ccccc12)NC(=O)OC(C)(C)C (centres undefined)
T/C (dose: 12.5 mg/kg/injection, schedule: Q01DX009 (ip), vehicle: other): 88 % of control
T/C (dose: 25.0 mg/kg/injection, schedule: Q01DX009 (ip), vehicle: other): 103 % of control
T/C (dose: 50.0 mg/kg/injection, schedule: Q01DX009 (ip), vehicle: other): 100 % of control
T/C (dose: 100.0 mg/kg/injection, schedule: Q01DX009 (ip), vehicle: other): 99 % of control
T/C (dose: 200.0 mg/kg/injection, schedule: Q01DX009 (ip), vehicle: other): 103 % of control

O=S1(=O)OCCO1
T/C (dose: 12.5 mg/kg/injection, schedule: Q01DX005 (ip), vehicle: saline): 106 % of control
T/C (dose: 25.0 mg/kg/injection, schedule: Q01DX005 (ip), vehicle: saline): 108 % of control

CS(=O)(=O)OCCN(CCOS(C)(=O)=O)c1ccc(C(=O)O)cc1
T/C (dose: 25.0 mg/kg/injection, schedule: Q01DX009 (ip), vehicle: saline with Tween-80): 159 % of control
T/C [7]: 168 % of control and 190 % of control
T/C [8]: 175 % of control
T/C (dose: 132.0 mg/kg/injection, schedule: Q04DX003 (ip), vehicle: saline with Tween-80): 159 % of control

C[N+]1=C(c2ccc[nH]2)CC(C(=O)[O-])CC1 (centres undefined)
T/C [10]: 100 % of control
T/C [11]: 106 % of control
T/C [12]: 102 % of control

CC(C)=Cc1cc(-c2cc(C=C(C)C)on2)no1
T/C (dose: 60.0 mg/kg/injection, schedule: Q01DX005 (ip), vehicle: saline): 100 % of control
T/C (dose: 120.0 mg/kg/injection, schedule: Q01DX005 (ip), vehicle: saline): 104 % of control
T/C (dose: 240.0 mg/kg/injection, schedule: Q01DX005 (ip), vehicle: saline): 100 % of control

CC1OC1C(=O)Sc1ccccc1 (centres undefined)
T/C [13]: 105 % of control
T/C [14]: 110 % of control
T/C [4]: 106 % of control

CC(C)[C@H]1OC(=O)C=C2[C@@]13O[C@@H]3[C@H]1OC(=O)[C@]3(C)C1[C@]2(C)CC[C@@H]3O (some centres undefined)
T/C (dose: 1.0 mg/kg/injection, schedule: Q01DX009 (ip), vehicle: saline with Tween-80): 101 % of control
T/C (dose: 40.0 mg/kg/injection, schedule: Q01DX009 (ip), vehicle: saline with Tween-80): 105 % of control

Cc1cc(NC(=S)SCc2ccc3c(c2)OCO3)c([N+](=O)[O-])cc1C
T/C (dose: 50.0 mg/kg/injection, schedule: Q01DX009 (ip), vehicle: suspension in saline): 98 % of control
T/C (dose: 100.0 mg/kg/injection, schedule: Q01DX009 (ip), vehicle: suspension in saline): 100 % of control
T/C (dose: 200.0 mg/kg/injection, schedule: Q01DX009 (ip), vehicle: suspension in saline): 108 % of control

C#CCOc1ccccc1O
T/C [16]: 100 % of control
T/C [17]: 110 % of control
T/C [18]: 115 % of control

O=C(CCN1CCCC1)c1ccccc1
T/C [13]: 98 % of control
T/C [14]: 100 % of control
T/C [4]: 100 % of control

Cc1ncc(CO)c(C2NOCc3nscc32)c1O (centres undefined)
T/C (dose: 3.5 mg/kg/injection, schedule: Q04DX003 (ip), vehicle: saline): 100 % of control
T/C (dose: 7.0 mg/kg/injection, schedule: Q04DX003 (ip), vehicle: saline): 95 % of control
T/C (dose: 14.0 mg/kg/injection, schedule: Q04DX003 (ip), vehicle: saline): 100 % of control

CC(C(=O)O)c1ccc2sc(-c3ccccc3)nc2c1 (centres undefined)
T/C [5]: 102 % of control
T/C [6]: 100 % of control
T/C [15]: 98 % of control
